The text below walks through data of article PMC5773580, “A synthetic combinatorial approach to disabling deviant Hedgehog signaling” (Scientific Reports, 2018).

Several values for one entry are separate records, joined by “and”; a condition that tells them apart may be missing. Equal values may be shown once.

Experiment [1] has as its target T1, HDAC3/NCOR2 (Homo sapiens, UniProt O15379).
T1 construct: purchased BPS Bioscience #50051-11
Briefly: In vitro HDAC profiling (deacetylation assay), HDAC3. The format is biochemical. The following applies: for HDAC Activity (Fluorescent counts): Repeat1/Repeat 2. How it is done:
(§1) HDAC profiling was performed at BPS Bioscience (San Diego, CA). All of the compounds are dissolved in DMSO. A series of dilutions of the compounds were prepared with 10% DMSO in HDAC assay buffer (#50031) and 5 µl of the dilution was added to a 50 µl reaction so that the final concentration of DMSO is 1% in all of reactions. All of the enzymatic reactions were conducted in duplicate at 37 °C for 30 mins, except that the enzyme reactions for HDAC11 were at room temperature for 3 hrs. All of the reactions were performed in a 50 µl mixture containing HDAC assay buffer, 5 µg BSA, an HDAC substrate [HDAC Substrate 3 (BPS number 50037) or HDAC Class 2a Substrate 1 (BPS number 50040)], an HDAC enzyme (#50051-11) and a test compound. After enzymatic reactions, 50 μl of HDAC Developer (#50030) was added to each well and the plate was incubated at room temperature for an additional 20 mins. Fluorescence intensity was measured at an excitation of 360 nm and an emission of 460 nm using a Tecan Infinite M1000 microplate reader. HDAC activity assays were performed in duplicates at each concentration. The fluorescent intensity data were analyzed using the computer software, Graphpad Prism. In the absence of the compound, the fluorescent intensity (Ft) in each data set was defined as 100% activity. In the absence of HDAC, the fluorescent intensity (Fb) in each data set was defined as 0% activity. The percent activity in the presence of each compound was calculated according to the following equation: %activity = (F − Fb)/(Ft − Fb), where F = the fluorescent intensity in the presence of the compound. The values of % activity versus a series of compound concentrations were then plotted using non-linear regression analysis of Sigmoidal dose-response curve generated with the equation Y = B + (T − B)/1 + 10((LogIC50 − X) × Hill Slope), where Y = percent activity, B = minimum percent activity, T = maximum percent activity, X = logarithm of compound and Hill Slope = slope factor or Hill coefficient. The IC50 value was determined by the concentration causing a half-maximal percent activity.

The test system of experiment [2] is GLI-BS reporter in Ptch1-/- MEFs. The experiment is described as follows: GLI-BS reporter assay in Ptch1-/- MEFs. Type of experiment: cell-based. How it is done:
The HH-responsive firefly luciferase reporter (GLI-BS) and a control Renilla luciferase reporter (SV40-RL) were transfected into indicated cell lines using Effectene (Qiagen) either alone or with indicated DNAs. 24 hrs after transfection, cells were switched to low serum media (3% calf serum), and grown for another 48 hrs. in 5% CO2 in the presence/absence of compounds. 3T3-ShhFL cell line that stably expressing SHH and the two reporters were cultured in a similar fashion. FL and RL activities in lysate generated using Passive Lysis Buffer (Promega) were then assessed using the Dual-Luciferase kit (Promega) and a 96-well plate reading luminometer (BMG). The ratio of FL/RL was calculated and the averaged ratios from three replicates were reported.

The test system of experiment [3] is HDAC activity (acetylated tubulin) in NIH-3T3 cells. The experiment is described as follows: Acetylation assay, Western blot of acetylated tubulin. The format is cell-based. The following applies: 48hrs. The procedure: For analyzing acetylation status of histone 3 and tubulin, NIH3T3 cells were grown to confluence in 6-well plates. After 48hrs of treatment with indicated chemicals, cells were lysed in RIPA buffer or 1% NP40/phosphate buffered saline/protease inhibitors (SIGMA, #S8820), the lysate cleared using a microcentrifuge, then 6 × sample loading buffer (Bioland Scientific) added to the supernatant. Proteins were separated on SDS-PAGE (BioRad Criterion TGX Precast Gels). Antibodies used for analyzing the blots were: acetylated tubulin (SIGMA, #T6793), tubulin, acetyl-histone H3 (Lys23), and histone H3 (Cell Signaling Technology, #2125 S, #8848 and #9717, respectively). Chemiluminescence was detected using a Li-COR Odyssey Imaging System.

For experiment [4], the target named is T2, HDAC7 (Homo sapiens, UniProt Q8WUI4).
T2 construct: purchased BPS Bioscience #50051-11
T2 sequence (Q8WUI4 1-952): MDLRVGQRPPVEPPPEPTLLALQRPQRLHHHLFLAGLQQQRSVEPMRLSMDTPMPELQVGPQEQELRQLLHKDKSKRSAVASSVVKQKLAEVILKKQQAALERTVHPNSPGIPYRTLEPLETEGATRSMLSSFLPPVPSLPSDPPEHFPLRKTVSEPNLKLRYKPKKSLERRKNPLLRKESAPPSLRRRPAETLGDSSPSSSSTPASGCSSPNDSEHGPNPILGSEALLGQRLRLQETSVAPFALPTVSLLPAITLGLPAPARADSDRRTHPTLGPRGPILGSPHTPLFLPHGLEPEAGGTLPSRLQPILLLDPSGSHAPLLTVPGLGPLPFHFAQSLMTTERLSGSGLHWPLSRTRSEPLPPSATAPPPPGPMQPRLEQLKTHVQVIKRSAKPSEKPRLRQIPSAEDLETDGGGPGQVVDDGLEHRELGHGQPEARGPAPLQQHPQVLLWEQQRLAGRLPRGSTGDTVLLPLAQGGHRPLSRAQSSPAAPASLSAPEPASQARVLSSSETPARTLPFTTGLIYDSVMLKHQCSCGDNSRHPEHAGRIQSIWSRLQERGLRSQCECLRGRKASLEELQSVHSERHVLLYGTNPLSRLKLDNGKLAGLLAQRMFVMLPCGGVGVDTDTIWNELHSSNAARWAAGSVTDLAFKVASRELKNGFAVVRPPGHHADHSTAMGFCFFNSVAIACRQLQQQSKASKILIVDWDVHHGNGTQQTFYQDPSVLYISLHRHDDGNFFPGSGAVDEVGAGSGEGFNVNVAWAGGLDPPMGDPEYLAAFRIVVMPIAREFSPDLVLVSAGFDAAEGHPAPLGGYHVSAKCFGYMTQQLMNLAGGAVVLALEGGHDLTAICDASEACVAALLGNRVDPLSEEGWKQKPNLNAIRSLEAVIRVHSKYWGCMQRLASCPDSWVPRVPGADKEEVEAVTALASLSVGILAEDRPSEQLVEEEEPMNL
The experiment is described as follows: In vitro HDAC profiling (deacetylation assay), HDAC7. Type of experiment: biochemical. The following applies: for HDAC Activity (Fluorescent counts): Repeat1/Repeat 2. How it is done:
as §1

The mark [5] stands for this setting: in vitro deacetylation assay, duplicates.

T1 sequence (O15379 whole entry): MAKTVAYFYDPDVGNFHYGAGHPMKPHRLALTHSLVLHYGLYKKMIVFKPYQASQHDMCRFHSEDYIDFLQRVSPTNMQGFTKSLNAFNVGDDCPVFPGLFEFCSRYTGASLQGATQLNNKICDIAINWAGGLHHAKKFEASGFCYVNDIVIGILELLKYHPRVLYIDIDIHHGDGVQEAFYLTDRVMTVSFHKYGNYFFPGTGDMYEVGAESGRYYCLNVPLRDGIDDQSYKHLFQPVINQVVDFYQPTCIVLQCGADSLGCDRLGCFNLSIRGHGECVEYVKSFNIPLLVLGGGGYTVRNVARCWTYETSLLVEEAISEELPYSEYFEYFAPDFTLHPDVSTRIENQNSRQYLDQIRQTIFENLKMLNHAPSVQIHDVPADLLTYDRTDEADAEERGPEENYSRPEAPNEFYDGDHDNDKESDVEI
T1 sequence (Q9Y618 395-489 partner limits assumed): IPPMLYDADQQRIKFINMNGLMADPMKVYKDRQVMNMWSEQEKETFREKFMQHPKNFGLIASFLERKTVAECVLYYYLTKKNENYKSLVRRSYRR

Usually IC50 stands for the concentration needed to halve the response being measured. Read a low IC50 as greater potency. For the molecule `O=C(CCCCCCC(=O)Nc1ccc(Cl)c(C(=O)Nc2ccc(NC(=O)c3cc(Cl)ccc3Cl)cc2)c1)NO` [IHR-SAHA], the “HDAC Activity (Fluorescent counts)” value in experiment [1] (HDAC3/NCOR2, WW01 0 Log nM) was 24959 Fluorescent counts and 25571 Fluorescent counts; in experiment [1] (HDAC3/NCOR2, WW01 0.5 Log nM) it was 24611 Fluorescent counts and 25823 Fluorescent counts; in experiment [1] (HDAC3/NCOR2, WW01 1 Log nM), 23771 Fluorescent counts and 23666 Fluorescent counts; in experiment [1] (HDAC3/NCOR2, WW01 1.5 Log nM), 20712 Fluorescent counts and 23164 Fluorescent counts; in experiment [1] (HDAC3/NCOR2, WW01 2 Log nM) it was 15438 Fluorescent counts and 15968 Fluorescent counts; in experiment [1] (HDAC3/NCOR2, WW01 2.5 Log nM) it was 10185 Fluorescent counts and 10772 Fluorescent counts. In addition, the “HDAC Activity (Fluorescent counts)” value is 6354 Fluorescent counts and 6385 Fluorescent counts in experiment [1] (HDAC3/NCOR2, WW01 3 Log nM); 4726 Fluorescent counts and 4835 Fluorescent counts in experiment [1] (HDAC3/NCOR2, WW01 3.5 Log nM); 3849 Fluorescent counts and 3671 Fluorescent counts in experiment [1] (HDAC3/NCOR2, WW01 4 Log nM); 25301 Fluorescent counts and 26608 Fluorescent counts in experiment [1] (HDAC3/NCOR2, WW01 -0.5 Log nM); 32252 Fluorescent counts and 31868 Fluorescent counts in experiment [4] (HDAC7, WW01 0 Log nM); 34296 Fluorescent counts and 32176 Fluorescent counts in experiment [4] (HDAC7, WW01 0.5 Log nM). Also, the “HDAC Activity (Fluorescent counts)” value is 33398 Fluorescent counts and 31906 Fluorescent counts in experiment [4] (HDAC7, WW01 1 Log nM); 32702 Fluorescent counts and 31126 Fluorescent counts in experiment [4] (HDAC7, WW01 1.5 Log nM); 31277 Fluorescent counts and 30567 Fluorescent counts in experiment [4] (HDAC7, WW01 2 Log nM); 29706 Fluorescent counts and 30369 Fluorescent counts in experiment [4] (HDAC7, WW01 2.5 Log nM); 26605 Fluorescent counts and 26320 Fluorescent counts in experiment [4] (HDAC7, WW01 3 Log nM); 26104 Fluorescent counts and 24955 Fluorescent counts in experiment [4] (HDAC7, WW01 3.5 Log nM). Besides, the “HDAC Activity (Fluorescent counts)” value in experiment [4] (HDAC7, WW01 4 Log nM) was 25321 Fluorescent counts and 25226 Fluorescent counts; in experiment [4] (HDAC7, WW01 -0.5 Log nM), 33125 Fluorescent counts and 32259 Fluorescent counts. Further, the IC50 was 188 nM in experiment [1] (setting [5]), 15 nM in experiment [2] and greater than 10000 nM in experiment [4] (setting [5]). In addition, in experiment [3], the “HDAC inhibitory activity, acetylated tubulin accumulation (ratio to total tubulin), compared with SAHA” value is “increase in anti-HDAC activity”.
